Laboratory results reported in PubChem BioAssay (NCI).
Several values for one entry are separate records, joined by “and”; a condition that tells them apart may be missing. Equal values may be shown once.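 Cultured in 96-well plates, cells were exposed to test compound for 48 hours across five concentrations. Here, GI50 denotes the concentration required for 50% inhibition of growth. The concentration for full growth arrest is given as TGI.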

Key:
Experiment in all cases: NCI anticancer screen, dose series, 48 h
HOP-62 NSCLC = test system: HOP-62 NSCLC
LXFL 529 NSCLC = test system: LXFL 529 NSCLC
CCRF-CEM leukemia = test system: CCRF-CEM leukemia
NCI-H522 lung = test system: NCI-H522 lung
IGROV1 ovarian = test system: IGROV1 ovarian
786-0 renal = test system: 786-0 renal
XF 498 CNS = test system: XF 498 CNS
DMS 114 small cell lung = test system: DMS 114 small cell lung
UACC-62 melanoma = test system: UACC-62 melanoma
SNB-19 CNS = test system: SNB-19 CNS
RPMI-8226 leukemia = test system: RPMI-8226 leukemia
K-562 leukemia = test system: K-562 leukemia
DMS 273 small cell lung = test system: DMS 273 small cell lung
SNB-78 CNS = test system: SNB-78 CNS
LOX IMVI melanoma = test system: LOX IMVI melanoma
SF-295 CNS = test system: SF-295 CNS
HCT-15 colon = test system: HCT-15 colon
CAKI-1 renal = test system: CAKI-1 renal
NCI-H460 lung = test system: NCI-H460 lung
ACHN renal = test system: ACHN renal
SW-620 colon = test system: SW-620 colon
HL-60(TB) leukemia = test system: HL-60(TB) leukemia
OVCAR-4 ovarian = test system: OVCAR-4 ovarian
SK-OV-3 ovarian = test system: SK-OV-3 ovarian
HCT-116 colon = test system: HCT-116 colon
MALME-3M melanoma = test system: MALME-3M melanoma
SN12C renal = test system: SN12C renal
UACC-257 melanoma = test system: UACC-257 melanoma
MOLT-4 leukemia = test system: MOLT-4 leukemia
KM20L2 colon = test system: KM20L2 colon
HCC-2998 colon = test system: HCC-2998 colon
SNB-75 CNS = test system: SNB-75 CNS
UO-31 renal = test system: UO-31 renal
OVCAR-3 ovarian = test system: OVCAR-3 ovarian
SF-268 CNS = test system: SF-268 CNS
U251 CNS = test system: U251 CNS
DLD-1 colon = test system: DLD-1 colon
SR leukemia = test system: SR leukemia
RXF 393 renal = test system: RXF 393 renal
KM12 colon = test system: KM12 colon
M14 melanoma = test system: M14 melanoma
SF-539 CNS = test system: SF-539 CNS
HT29 colon = test system: HT29 colon
SK-MEL-5 melanoma = test system: SK-MEL-5 melanoma
SK-MEL-28 melanoma = test system: SK-MEL-28 melanoma
TK-10 renal = test system: TK-10 renal
HOP-92 NSCLC = test system: HOP-92 NSCLC
COLO 205 colon = test system: COLO 205 colon
OVCAR-8 ovarian = test system: OVCAR-8 ovarian
NCI-H226 lung = test system: NCI-H226 lung
NCI-H23 lung = test system: NCI-H23 lung
OVCAR-5 ovarian = test system: OVCAR-5 ovarian
M19-MEL melanoma = test system: M19-MEL melanoma
A549 NSCLC = test system: A549 NSCLC
HS 578T breast = test system: HS 578T breast
MDA-MB-435 = test system: MDA-MB-435
DU-145 prostate = test system: DU-145 prostate
A498 renal = test system: A498 renal
NCI/ADR-RES ovarian = test system: NCI/ADR-RES ovarian
SK-MEL-2 melanoma = test system: SK-MEL-2 melanoma
PC-3 prostate = test system: PC-3 prostate
BT-549 breast = test system: BT-549 breast
MDA-N = test system: MDA-N
MDA-MB-231 breast = test system: MDA-MB-231 breast
T-47D breast = test system: T-47D breast
MCF7 breast = test system: MCF7 breast
EKVX NSCLC = test system: EKVX NSCLC

## O=C(N/N=C(\C1=Nc2ccc(Cl)cc2NC1O)C(O)/C=C/c1ccccc1)c1ccncc1 (centres undefined)
HOP-62 NSCLC
  TGI: > 100 µM
LXFL 529 NSCLC
  TGI: > 100 µM
CCRF-CEM leukemia
  TGI: > 100 µM
NCI-H522 lung
  TGI: > 100 µM
IGROV1 ovarian
  TGI: > 100 µM
786-0 renal
  TGI: > 100 µM
XF 498 CNS
  TGI: > 100 µM
DMS 114 small cell lung
  TGI: > 100 µM
UACC-62 melanoma
  TGI: > 100 µM
SNB-19 CNS
  TGI: > 100 µM
RPMI-8226 leukemia
  TGI: > 100 µM
K-562 leukemia
  TGI: > 100 µM
DMS 273 small cell lung
  TGI: > 100 µM
SNB-78 CNS
  TGI: > 100 µM
LOX IMVI melanoma
  TGI: > 100 µM
SF-295 CNS
  TGI: > 100 µM
HCT-15 colon
  TGI: > 100 µM
CAKI-1 renal
  TGI: > 100 µM
NCI-H460 lung
  TGI: > 100 µM
ACHN renal
  TGI: > 100 µM
SW-620 colon
  TGI: > 100 µM
HL-60(TB) leukemia
  TGI: > 100 µM
OVCAR-4 ovarian
  TGI: > 100 µM
SK-OV-3 ovarian
  TGI: > 100 µM
HCT-116 colon
  TGI: > 100 µM
MALME-3M melanoma
  TGI: > 100 µM
SN12C renal
  TGI: > 100 µM
UACC-257 melanoma
  TGI: > 100 µM
MOLT-4 leukemia
  TGI: > 100 µM
KM20L2 colon
  TGI: > 100 µM
HCC-2998 colon
  TGI: > 100 µM
SNB-75 CNS
  TGI: > 100 µM
UO-31 renal
  TGI: > 100 µM
OVCAR-3 ovarian
  TGI: > 100 µM
SF-268 CNS
  TGI: > 100 µM
U251 CNS
  TGI: > 100 µM
DLD-1 colon
  TGI: > 100 µM
SR leukemia
  TGI: > 100 µM
RXF 393 renal
  TGI: > 100 µM
KM12 colon
  TGI: > 100 µM
M14 melanoma
  TGI: > 100 µM
SF-539 CNS
  TGI: > 100 µM
HT29 colon
  TGI: > 100 µM
SK-MEL-5 melanoma
  TGI: > 100 µM
SK-MEL-28 melanoma
  TGI: > 100 µM
TK-10 renal
  TGI: > 100 µM
HOP-92 NSCLC
  TGI: > 100 µM
COLO 205 colon
  TGI: > 100 µM
OVCAR-8 ovarian
  TGI: > 100 µM
NCI-H226 lung
  TGI: > 100 µM
NCI-H23 lung
  TGI: > 100 µM
OVCAR-5 ovarian
  TGI: > 100 µM
M19-MEL melanoma
  TGI: > 100 µM
A549 NSCLC
  TGI: > 100 µM

## O=C(O)CCCc1ccccc1
HOP-62 NSCLC
  GI50: 235 µM and > 1000 µM
  TGI: > 1000 µM
CCRF-CEM leukemia
  GI50: > 1000 µM
  TGI: 350 µM and > 1000 µM
NCI-H522 lung
  GI50: > 1000 µM
  TGI: 634 µM and > 1000 µM
IGROV1 ovarian
  GI50: 412 µM and > 1000 µM
  TGI: > 1000 µM
UACC-62 melanoma
  GI50: > 1000 µM
  TGI: 587 µM and > 1000 µM
SNB-19 CNS
  GI50: 537 µM and > 1000 µM
  TGI: > 1000 µM
RPMI-8226 leukemia
  GI50: 19.5 µM
  TGI: 79.2 µM
K-562 leukemia
  GI50: > 1000 µM
  TGI: 338 µM and > 1000 µM
HS 578T breast
  GI50: > 1000 µM
  TGI: 625 µM and > 1000 µM
LOX IMVI melanoma
  GI50: 224 µM and > 1000 µM
  TGI: 898 µM and > 1000 µM
MDA-MB-435
  GI50: 292 µM and > 1000 µM
  TGI: > 1000 µM
SF-295 CNS
  GI50: 370 µM and > 1000 µM
  TGI: 738 µM and > 1000 µM
HCT-15 colon
  GI50: > 1000 µM
  TGI: 342 µM and > 1000 µM
CAKI-1 renal
  GI50: > 1000 µM
  TGI: > 1000 µM
NCI-H460 lung
  GI50: > 1000 µM
  TGI: 295 µM and > 1000 µM
ACHN renal
  GI50: 436 µM and > 1000 µM
  TGI: > 1000 µM
SW-620 colon
  GI50: 333 µM and > 1000 µM
  TGI: > 1000 µM
HL-60(TB) leukemia
  GI50: > 1000 µM
  TGI: > 1000 µM
OVCAR-4 ovarian
  TGI: 184 µM and > 1000 µM
SK-OV-3 ovarian
  GI50: 522 µM and > 1000 µM
  TGI: > 1000 µM
DU-145 prostate
  GI50: > 1000 µM
  TGI: > 1000 µM
HCT-116 colon
  GI50: > 1000 µM
  TGI: > 1000 µM
MALME-3M melanoma
  TGI: 121 µM and > 1000 µM
SN12C renal
  GI50: > 1000 µM
  TGI: > 1000 µM
UACC-257 melanoma
  GI50: 340 µM and > 1000 µM
  TGI: > 1000 µM
MOLT-4 leukemia
  GI50: > 1000 µM
  TGI: 394 µM and > 1000 µM
HCC-2998 colon
  GI50: > 1000 µM
  TGI: 517 µM and > 1000 µM
SNB-75 CNS
  TGI: 327 µM and > 1000 µM
UO-31 renal
  GI50: > 1000 µM
  TGI: 715 µM and > 1000 µM
A498 renal
  GI50: > 1000 µM
  TGI: 302 µM and > 1000 µM
NCI/ADR-RES ovarian
  GI50: 83.1 µM and 21.2 µM
  TGI: 343 µM and 47.1 µM
OVCAR-3 ovarian
  GI50: 537 µM
  TGI: > 1000 µM
SK-MEL-2 melanoma
  GI50: 349 µM and > 1000 µM
  TGI: 932 µM and > 1000 µM
PC-3 prostate
  GI50: 364 µM and > 1000 µM
  TGI: > 1000 µM
SF-268 CNS
  TGI: 348 µM and > 1000 µM
U251 CNS
  GI50: 292 µM and > 1000 µM
  TGI: > 1000 µM
SR leukemia
  GI50: 215 µM and 28.5 µM
  TGI: > 1000 µM
BT-549 breast
  GI50: 242 µM and > 1000 µM
  TGI: > 1000 µM
RXF 393 renal
  GI50: > 1000 µM
  TGI: 604 µM and > 1000 µM
MDA-N
  TGI: > 1000 µM
KM12 colon
  GI50: > 1000 µM
  TGI: 366 µM and > 1000 µM
M14 melanoma
  GI50: > 1000 µM
  TGI: > 1000 µM
SF-539 CNS
  GI50: > 1000 µM
  TGI: 533 µM and > 1000 µM
HT29 colon
  GI50: 221 µM and > 1000 µM
  TGI: > 1000 µM
SK-MEL-5 melanoma
  GI50: > 1000 µM
  TGI: 427 µM and > 1000 µM
MDA-MB-231 breast
  GI50: 338 µM and > 1000 µM
  TGI: > 1000 µM
T-47D breast
  GI50: 203 µM and > 1000 µM
  TGI: > 1000 µM
SK-MEL-28 melanoma
  GI50: 325 µM and > 1000 µM
  TGI: > 1000 µM
TK-10 renal
  GI50: 285 µM and > 1000 µM
  TGI: > 1000 µM
HOP-92 NSCLC
  GI50: > 1000 µM
  TGI: 363 µM and > 1000 µM
COLO 205 colon
  GI50: 363 µM and > 1000 µM
  TGI: > 1000 µM
OVCAR-8 ovarian
  GI50: 150 µM and 17.3 µM
NCI-H226 lung
  GI50: 253 µM and > 1000 µM
  TGI: 917 µM and > 1000 µM
MCF7 breast
  GI50: 160 µM and > 1000 µM
  TGI: > 1000 µM
NCI-H23 lung
  GI50: 377 µM and > 1000 µM
  TGI: > 1000 µM
OVCAR-5 ovarian
  GI50: 456 µM and > 1000 µM
  TGI: > 1000 µM
EKVX NSCLC
  GI50: 294 µM and > 1000 µM
  TGI: > 1000 µM
A549 NSCLC
  GI50: 322 µM and > 1000 µM
  TGI: > 1000 µM
